In article PMC9928118, “Funneling modulatory peptide design with generative models: Discovery and characterization of disruptors of calcineurin protein-protein interactions” (PLOS Computational Biology, 2023):

Tested on: GST-tagged Cn
Test: PEPperPRINT peptide microarray binding assay with GST-tagged Cn
Text: We then estimated in-silico the binding strength of the various peptides to Cn by template-based docking followed by flexible backbone refinement using Modeller and PepCrawler (Figs 4 and S4). In parallel, we performed a medium-throughput qualitative binding assay using a PEPperPRINT peptide microarray to evaluate the direct binding of Cn to selected peptides (Figs 4 and S5, S3 Data).
Fig 4 Medium-throughput filtering by structural modeling and microarray screening. (a) Depiction of the structural modeling protocol: after alignment to the known PxIxIT binding site, an efficient flexible backbone structure refinement algorithm is applied to estimate the docking energy. […] (c) Coefficients of the equivalent single-site model fitted by sparse linear regression, shown in weight logo representation. […] Colors indicate physical property (black = hydrophobic, red = negatively charged, etc.). (d) Per-gene distribution of docking scores across natural fragments (lower is better). […] (e) Overview of the microarray screening. Peptides are printed on the chip (two circles per peptide). After pouring of Cn and subsequent washing, fluorescent-tagged, a Cn-targeting antibody is overlaid and an image is taken. Fluorescent spots indicate strong Cn binders. (f) Scatter plot of the sequence likelihood (normalized by length, higher is better) against fluorescence level (higher is better, see Methods for details of the data analysis).
In parallel, selected peptides were tested for Cn binding on a chip microarray (PEPperPRINT). 786 peptides were printed on the chip and were incubated with GST-tagged Cn overnight at 4°C. Following extensive washing, binding was detected by applying a fluorescently labeled (Alexa-Fluor 647) GST antibody. […] The experiment was repeated five times, and Z-normalized fluorescence levels were determined following post-processing of the raw data (Methods, S5A, S5B and S5C Fig).
The peptide array was prepared as a custom array pepper chip (PEPperPRINT). For binding detection, 1mg/ml GST-tagged Cn was incubated overnight on the microarray at 4°C. Following extensive washing, fluorescently labeled (Alexa-Fluor 647) GST-antibody. […] The experiment was repeated five times. Each scan was analyzed as follows: a grid was overlaid using the border HA markers to determine regions of interest (ROI) for each peptide (two ROIs per peptide) and the logarithm of the average fluorescence intensity was computed for each ROI. […] To remove spatial artifacts, a position-dependent baseline fluorescence was fitted using a second-order polynomial, and subtracted to the fluorescence. Fluorescence levels were next averaged over the two ROI for each peptide and Z-normalized. […] The Z-scores were averaged over the five repetitions to yield one fluorescence score per peptide.

[1] = GST-tagged Cn, max over the chip locations
[2] = GST-tagged Cn, mean over the chip locations
[3] = GST-tagged Cn, max over the chip spots listed under Location on chip
[4] = GST-tagged Cn, mean over the chip spots listed under Location on chip
[5] = GST-tagged Cn, max over the spots named in Location on chip
[6] = GST-tagged Cn, mean over the spots named in Location on chip
[7] = max over the spots listed under Location on chip
[8] = mean over the spots listed under Location on chip
[9] = GST-tagged Cn, max over the spots on the chip (two locations)
[10] = GST-tagged Cn, mean over the spots on the chip (two locations)
[11] = max over the chip locations listed for the peptide (two spots)
[12] = mean over the chip locations listed for the peptide (two spots)

Sequence: HVSSSPDITLTPTQHR [SeqRBMlowT_782]
- Chip Fluorescence (max) [1]: -0.2367
- Chip Fluorescence (mean) [2]: -0.7632

Sequence: HVSSSPDITVTPTQHR [SeqRBMlowT_701]
- Chip Fluorescence (max) [1]: 0.2772
- Chip Fluorescence (mean) [2]: -0.7766

Sequence: HVSSSPDIVITPTQHR [SeqRBMlowT_1399]
- Chip Fluorescence (max) [1]: 0.3374
- Chip Fluorescence (mean) [2]: -0.4706

Sequence: HVSSSPDVTLKIPQHR [SeqRBMlowT_2187]
- Chip Fluorescence (max) [3]: 0.8915
- Chip Fluorescence (mean) [4]: -0.5849

Sequence: HVSSSPDVTLTPTQHR [SeqRBMlowT_4550]
- Chip Fluorescence (max) [3]: 0.8955
- Chip Fluorescence (mean) [4]: -0.3348

Sequence: HVSSSPRIAITPTQHR [SeqRBMlowT_8885]
- Chip Fluorescence (max) [5]: 1.646
- Chip Fluorescence (mean) [6]: -0.634

Sequence: HVSSSPRITITPTQHR [SeqRBMlowT_743]
- Chip Fluorescence (max) [7]: 2.778
- Chip Fluorescence (mean) [8]: 0.8662

Sequence: HVSSSSDITITPTQHR [SeqRBMlowT_2715]
- Chip Fluorescence (max) [9]: 1.1425
- Chip Fluorescence (mean) [10]: -0.2145

Sequence: HVSSSVDIVITPTQHR [SeqRBMlowT_8839]
- Chip Fluorescence (max) [5]: 1.415
- Chip Fluorescence (mean) [6]: 0.2946

Sequence: IKLIIWNHNISNHGTY [SeqRBM_5872]
- Chip Fluorescence (max) [11]: 8.925
- Chip Fluorescence (mean) [12]: 1.809

Sequence: KAYIMLFFTFIDGGQK [SeqRBM_3979]
- Chip Fluorescence (max) [3]: 0.8506
- Chip Fluorescence (mean) [4]: -0.3833

Sequence: KAYINPFMQFIDGGRR [SeqRBMlowT_549]
- Chip Fluorescence (max) [7]: 3.298
- Chip Fluorescence (mean) [8]: 1.4015

Sequence: KAYINPFMTFIEGGRK [SeqRBMlowT_3627]
- Chip Fluorescence (max) [11]: 4.329
- Chip Fluorescence (mean) [12]: 0.4696

Sequence: KAYINPSMVFIEGGRR [SeqRBM_7863]
- Chip Fluorescence (max) [7]: 2.964
- Chip Fluorescence (mean) [8]: 0.9132

Sequence: KAYMCPAVSFQDGGRR [SeqRBMlowT_4017]
- Chip Fluorescence (max) [5]: 1.6
- Chip Fluorescence (mean) [6]: -0.3289

Sequence: KAYMCPFMQFIDGGRK [SeqRBMlowT_522]
- Chip Fluorescence (max) [7]: 2.8656
- Chip Fluorescence (mean) [8]: 1.3266

Sequence: KAYMCPFMQFIEGGRR [SeqRBMlowT_535]
- Chip Fluorescence (max) [3]: 0.9778
- Chip Fluorescence (mean) [4]: -1.603

Sequence: KAYMCPFMQFIEGGRR [SeqSFB3_Pan_troglodytes]
- Chip Fluorescence (max) [3]: 0.9778
- Chip Fluorescence (mean) [4]: -1.603

Sequence: KAYMCPFMQFQDGGRR [SeqRBMlowT_520]
- Chip Fluorescence (max) [3]: 0.6726
- Chip Fluorescence (mean) [4]: 0.4462

Sequence: KAYMCPFMSFIDGGQR [SeqRBMlowT_3665]
- Chip Fluorescence (max) [7]: 2.726
- Chip Fluorescence (mean) [8]: 0.3874

Sequence: KAYMCPSMQFIDGGRR [SeqRBMlowT_9264]
- Chip Fluorescence (max) [9]: 1.2267
- Chip Fluorescence (mean) [10]: -0.003433

Sequence: KAYMCPYMDFQDGGRR [SeqRBM_4270]
- Chip Fluorescence (max) [7]: 3.135
- Chip Fluorescence (mean) [8]: 0.405

Sequence: KAYMCPYMQFIDGGRK [SeqRBMlowT_9280]
- Chip Fluorescence (max) [5]: 1.462
- Chip Fluorescence (mean) [6]: 1.063

Sequence: KAYMCSFMRFIEGGRR [SeqRBMlowT_3379]
- Chip Fluorescence (max) [7]: 2.957
- Chip Fluorescence (mean) [8]: -0.3215

Sequence: KAYMNPFMQFIDGGRR [SeqRBMlowT_560]
- Chip Fluorescence (max) [11]: 4.3098
- Chip Fluorescence (mean) [12]: 0.3269

Sequence: KAYMNPYMQFIDGGRR [SeqRBMlowT_4720]
- Chip Fluorescence (max) [9]: 1.204
- Chip Fluorescence (mean) [10]: -0.1516

Sequence: KAYMNPYVQFIDGGRR [SeqRBMlowT_9255]
- Chip Fluorescence (max) [9]: 1.252
- Chip Fluorescence (mean) [10]: -0.2059

Sequence: KAYMSPFMQFVDAGRR [SeqSFB3_Nasonia_vitripennis]
- Chip Fluorescence (max) [5]: 1.597
- Chip Fluorescence (mean) [6]: -0.04342

Sequence: KAYMSPFMSFIDGGRR [SeqRBMlowT_6614]
- Chip Fluorescence (max) [7]: 2.798
- Chip Fluorescence (mean) [8]: 1.173

Sequence: KDKAGKRSHLKGHSES [Seqshuffled_5410]
- Chip Fluorescence (max) [3]: 0.8078
- Chip Fluorescence (mean) [4]: -0.09052

Sequence: KDMLIPRPSSQDSGAY [SeqRBM_5587]
- Chip Fluorescence (max) [5]: 1.626
- Chip Fluorescence (mean) [6]: -0.4019

Sequence: KEGPISSTVVMEALSI [SeqRBM_843]
- Chip Fluorescence (max) [3]: 0.8382
- Chip Fluorescence (mean) [4]: -0.2608

Sequence: KERDVNYYIIHPVGSA [Seqshuffled_9799]
- Chip Fluorescence (max) [11]: 3.906
- Chip Fluorescence (mean) [12]: 0.5831

Sequence: KFPGAEFLPQTLTPPP [Seqshuffled_9792]
- Chip Fluorescence (max) [3]: 0.7156
- Chip Fluorescence (mean) [4]: -0.9321

Sequence: KGCAAPAISIDFAPIN [SeqRBM_541]
- Chip Fluorescence (max) [11]: 6.269
- Chip Fluorescence (mean) [12]: 0.8691

Sequence: KHATSPRINITQTSTL [SeqRBM_2048]
- Chip Fluorescence (max) [3]: 0.7747
- Chip Fluorescence (mean) [4]: -0.7747

Sequence: KHLDVPDIIITPPTPT [SeqC16orf74_Pan_troglodytes]
- Chip Fluorescence (max) [11]: 11.1628
- Chip Fluorescence (mean) [12]: 2.896

Sequence: KKDVPPKILIEPPREF [SeqRBM_6642]
- Chip Fluorescence (max) [3]: 0.9085
- Chip Fluorescence (mean) [4]: -0.7336

Sequence: KKMAPPAINIDFAPTN [SeqRBMlowT_341]
- Chip Fluorescence (max) [5]: 1.339
- Chip Fluorescence (mean) [6]: -0.05324

Sequence: KKMAPPCINIDFAPEN [SeqRBMlowT_2474]
- Chip Fluorescence (max) [5]: 1.579
- Chip Fluorescence (mean) [6]: 0.1538

Sequence: KKMAPPCINIDFAPTN [SeqRBMlowT_322]
- Chip Fluorescence (max) [1]: -0.3563
- Chip Fluorescence (mean) [2]: -3.542

Sequence: KKMAPPCINIDPAPEN [SeqRBMlowT_2431]
- Chip Fluorescence (max) [11]: 3.662
- Chip Fluorescence (mean) [12]: 0.8549

Sequence: KKMAPPCINIDPAPTN [SeqRBMlowT_309]
- Chip Fluorescence (max) [5]: 1.659
- Chip Fluorescence (mean) [6]: -0.3088

Sequence: KKMAPPCINIDPAPTS [SeqRBMlowT_307]
- Chip Fluorescence (max) [1]: 0.2085
- Chip Fluorescence (mean) [2]: -1.259

Sequence: KKMAPPCISVHPPEED [SeqRBMlowT_5025]
- Chip Fluorescence (max) [3]: 0.441
- Chip Fluorescence (mean) [4]: -1.335

Sequence: KKMSPPCIDVHPLDSA [SeqRBM_2282]
- Chip Fluorescence (max) [7]: 2.64
- Chip Fluorescence (mean) [8]: 0.293

Sequence: KKMSPPCINIDPAPEN [SeqRBMlowT_2410]
- Chip Fluorescence (max) [9]: 1.08
- Chip Fluorescence (mean) [10]: -0.8311

Sequence: KKMSPPCINIDPAPTN [SeqRBMlowT_1811]
- Chip Fluorescence (max) [9]: 0.9886
- Chip Fluorescence (mean) [10]: -0.8988

Sequence: KKMSPPCISIDPAPNN [SeqRBMlowT_7656]
- Chip Fluorescence (max) [1]: 0.1833
- Chip Fluorescence (mean) [2]: -1.098

Sequence: KKMSPPCISVDPPDEL [SeqCACNA1H_Nothobranchius_rachovii]
- Chip Fluorescence (max) [9]: 1.26
- Chip Fluorescence (mean) [10]: -0.004401

Sequence: KKMSPPCIVVSPPEED [SeqRBMlowT_306]
- Chip Fluorescence (max) [11]: 6.125
- Chip Fluorescence (mean) [12]: 1.9169

Sequence: KMAKFLINLSAEKSVM [Seqrandom_9965]
- Chip Fluorescence (max) [9]: 1.232
- Chip Fluorescence (mean) [10]: -0.1213

Sequence: KPFECPSIQITSISPN [SeqNFATC3_Homo_sapiens]
- Chip Fluorescence (max) [3]: 0.8784
- Chip Fluorescence (mean) [4]: -0.3746

Sequence: KQMAPPAINIDFAPTN [SeqRBMlowT_1821]
- Chip Fluorescence (max) [1]: -0.4908
- Chip Fluorescence (mean) [2]: -3.72

Sequence: KRMEPIAIIITDTEIS [SeqAKAP79_Pan_troglodytes]
- Chip Fluorescence (max) [11]: 24.574
- Chip Fluorescence (mean) [12]: 3.689

Sequence: KRYWKPQFKFGTQVSE [SeqRBM_7919]
- Chip Fluorescence (max) [5]: 1.674
- Chip Fluorescence (mean) [6]: -0.01942

Sequence: KSKAAPSIVIHIPEEA [SeqRBM_8661]
- Chip Fluorescence (max) [5]: 1.362
- Chip Fluorescence (mean) [6]: 0.2601

Sequence: KSKLIPKLSFQSPVHH [SeqRBMlowT_3425]
- Chip Fluorescence (max) [1]: 0.2205
- Chip Fluorescence (mean) [2]: -0.7902

Sequence: KSKLIPKLSIQSPVHH [SeqRBMlowT_830]
- Chip Fluorescence (max) [1]: -0.5565
- Chip Fluorescence (mean) [2]: -1.425

Sequence: KSKLIPKLSIQSPVRH [SeqJHY_Macaca_mulatta]
- Chip Fluorescence (max) [9]: 1.129
- Chip Fluorescence (mean) [10]: -1.294

Sequence: KSKSIPKISIQSPVHH [SeqRBMlowT_1684]
- Chip Fluorescence (max) [7]: 2.868
- Chip Fluorescence (mean) [8]: 0.2995

Sequence: KSRALSKVVINEPLTI [SeqTRESK_Leptosomus_discolor]
- Chip Fluorescence (max) [9]: 1.0328
- Chip Fluorescence (mean) [10]: -0.6623

Sequence: KSSSSPSASINVPQSN [SeqRBM_1871]
- Chip Fluorescence (max) [11]: 3.993
- Chip Fluorescence (mean) [12]: 1.569

Sequence: KTGMATDMQFNPIEQH [Seqshuffled_2687]
- Chip Fluorescence (max) [3]: 0.7078
- Chip Fluorescence (mean) [4]: 0.0887

Sequence: KVMAVPRISRSPTQVL [SeqRBM_6937]
- Chip Fluorescence (max) [5]: 1.835
- Chip Fluorescence (mean) [6]: 0.723
